Assays:
Type in all cases: in vivo
[1] = system: adult engorged female ticks (Rhipicephalus microplus); test: Rhipicephalus (Boophilus) microplus injection test; settings: 168 h, egg deposition after 7 days, read-out: efficacy (infertile eggs); for pest or weed control at 0.004 mg: 4 μg/animal; for pest or weed control at 0.02 mg: 20 μg/animal
Method: (§1) Solvent: dimethyl sulfoxide
To produce a suitable preparation of active compound, 10 mg of active compound are dissolved in 0.5 mL solvent, and the concentrate is diluted with solvent to the desired concentration.
Five adult engorged female ticks (Rhipicephalus microplus) are injected with 1 μL compound solution into the abdomen. The ticks are transferred into replica plates and incubated in a climate chamber.
After 7 days egg deposition of fertile eggs is monitored. Eggs where fertility is not visible are stored in a climate chamber till hatching after about 42 days. An efficacy of 100% means all eggs are infertile; 0% means all eggs are fertile.

[2] = system: adult unfed cat fleas (Ctenocephalides felis); test: Ctenocephalides felis oral test; settings: 48 h, 100 ppm in cattle blood, after 2 days
Method: as §1
To produce a suitable preparation of active compound, 10 mg of active compound are dissolved in 0.5 mL solvent, and the concentrate is diluted with cattle blood to the desired concentration.
Approximately 20 adult unfed cat fleas (Ctenocephalides felis) are placed in flea chambers. The blood chamber, sealed with parafilm on the bottom, are filled with cattle blood supplied with compound solution and placed on the gauze covered top of the flea chamber, so that the fleas are able to suck the blood. The blood chamber is heated to 37° C. whereas the flea chamber is kept at room temperature.
After 2 days mortality in % is determined. 100% means all the fleas have been killed; 0% means none of the fleas have been killed.

[3] = system: cattle tick larvae (Rhipicephalus microplus), strain Parkhurst, resistant against synthetic pyrethroids; test: Rhipicephalus (Boophilus) microplus in-vitro contact test, larval cattle tick; settings: 5 μg/cm^2 (=500 g/ha), after 48 hours, read-out: efficacy (larvae dead or moribund)
Method: 9 mg compound is solved in 1 mL acetone and diluted with acetone to the desired concentration. 250 μL of the test solution is filled in 25 mL glass test tubes and homogeneously distributed on the inner walls by rotation and tilting on a shaking device (2 h at 30 rpm). With a compound concentration of 900 ppm, an inner surface of 44.7 cm^2 and a homogeneous distribution, a dose of 5 μg/cm^2 is achieved.
After the solvent has evaporated, each test tube is filled with 20-50 cattle tick larvae (Rhipicephalus microplus), closed with a perforated lid and incubated in a horizontal position at 85% relative humidity and 27° C. in an incubator. After 48 hours efficacy is determined. The larvae are patted on the ground of the tubes and negative geotactic behaviour is recorded.
An efficacy of 100% means all larvae are dead or moribund; 0% means no larvae are dead or moribund.

[4] = system: larvae of the banded cucumber beetle (Diabrotica balteata); test: Diabrotica balteata spray test; settings: 168 h, 100 g/ha (=32 μg/well), after 7 days, wheat seeds, read-out: efficacy (seedlings grown up)
Method: Solvent: 78.0 parts by weight of acetone • • 1.5 parts by weight of dimethylformamide
(§2) Emulsifier: alkylarylpolyglycol ether
(§3) To produce a suitable preparation of active compound, 1 part by weight of active compound is mixed with the stated amount of solvent, and the concentrate is diluted with water, containing an emulsifier concentration of 1000 ppm, to the desired concentration. Further test concentrations are prepared by dilution with emulsifier containing water.
Soaked wheat seeds (Triticum aestivum) are placed in a multiple well plate filled with agar and some water and are incubated for 1 day to germinate (5 seeds per well). The germinated wheat seeds are sprayed with a test solution containing the desired concentration of the active ingredient. Afterwards each unit is infected with 10-20 larvae of the banded cucumber beetle (Diabrotica balteata).
After 7 days efficacy in % is determined. 100% means all the seedlings have grown up like in the untreated, uninfected control; 0% means none of the seedlings have grown.

[5] = system: fall armyworm larvae (Spodoptera frugiperda); test: Spodoptera frugiperda spray test (maize leaf sections); settings: 168 h
Method: Solvent: 78.0 parts by weight acetone • 1.5 parts by weight dimethylformamide
as §2
as §3, with “solvents” for “solvent,”, “and” for “and the concentrate”
Maize (Zea mays) leaf sections are sprayed with a preparation of the active ingredient of the desired concentration. Once dry, the leaf sections are infested with fall armyworm larvae (Spodoptera frugiperda).
After 7 days mortality in % is determined. 100% means all caterpillars have been killed and 0% means none of the caterpillars have been killed.

## CC(NC(=O)c1cc(Cl)cc(S(C)(=O)=O)c1)c1nc(-c2cnccn2)nn1-c1ccc(Cl)cn1 (centres unmarked) [I-039]
[1]
  pest or weed control at 0.004 mg: 100%
  pest or weed control at 0.02 mg: 80%
[2]
  mortality at 100 ppm: 100%

## CC(NC(=O)c1cc(Cl)cc(Cl)c1)c1nc(CS(C)(=O)=O)nn1-c1ccc(Cl)cn1 (centres unmarked) [I-028]
[1]
  pest or weed control at 0.004 mg: 100%
  pest or weed control at 0.02 mg: 100%
[2]
  mortality at 100 ppm: 100%

## CC(NC(=O)c1cc(Cl)nc(C(F)(F)F)c1)c1nc(-c2ncccn2)nn1-c1ncccn1 (centres unmarked) [I-056]
[1]
  pest or weed control at 0.004 mg: 80%
  pest or weed control at 0.02 mg: 100%
[2]
  mortality at 100 ppm: 100%

## CC(NC(=O)c1cncc(C(F)(F)F)c1)c1nc(CS(C)(=O)=O)nn1-c1ccc(Cl)cn1 (centres unmarked) [I-030]
[1]
  pest or weed control at 0.004 mg: 100%
  pest or weed control at 0.02 mg: 100%
[2]
  mortality at 100 ppm: 100%

## CC(NC(=O)c1cc(Cl)cc(S(C)(=O)=O)c1)c1nc(SC(F)(C(F)(F)F)C(F)(F)F)nn1-c1ccc(Cl)cn1 (centres unmarked) [I-069]
[3]
  pest or weed control at 5 µg/cm2: 100%
[1]
  pest or weed control at 0.004 mg: 100%
  pest or weed control at 0.02 mg: 100%

## CC(NC(=O)c1cc(Cl)cc(S(C)(=O)=O)c1)c1nc(N)nn1-c1ncccn1 (centres unmarked) [I-008]
[1]
  pest or weed control at 0.004 mg: 100%
[2]
  mortality at 100 ppm: 100%

## CC(NC(=O)c1cc(Cl)nc(Cl)c1)c1nc(-c2cnccn2)nn1-c1ncccn1 (centres unmarked) [I-049]
[1]
  pest or weed control at 0.004 mg: 80%
  pest or weed control at 0.02 mg: 100%
[2]
  mortality at 100 ppm: 100%

## CC(NC(=O)c1cc(C(F)(F)F)cc(C(F)(F)F)c1)c1nc(N2CCOCC2)nn1-c1ccc(C#N)cn1 (centres unmarked) [I-158]
[3]
  pest or weed control at 5 µg/cm2: 100%
[4]
  pest or weed control at 32 µg/disc, 100 g/ha: 100%
[5]
  mortality at 100 g/ha: 100%

## CC(NC(=O)c1cc(Cl)nc(C(F)(F)F)c1)c1nc(-c2cnccn2)nn1-c1ncccn1 (centres unmarked) [I-044]
[1]
  pest or weed control at 0.004 mg: 100%
  pest or weed control at 0.02 mg: 100%
[2]
  mortality at 100 ppm: 100%

## CC(NC(=O)c1cncc(C(F)(F)F)c1)c1nc(-c2cnccn2)nn1-c1ccc(Cl)cn1 (centres unmarked) [I-038]
[1]
  pest or weed control at 0.004 mg: 100%
  pest or weed control at 0.02 mg: 100%
[2]
  mortality at 100 ppm: 100%

## CC(NC(=O)c1cc(OC(F)(F)F)cc(C2CC2)c1)c1nc(N)nn1-c1ccc(C#N)cn1 (centres unmarked) [I-122]
[3]
  pest or weed control at 5 µg/cm2: 100%
[4]
  pest or weed control at 32 µg/disc, 100 g/ha: 100%

## CC(NC(=O)c1cc(Cl)cc(C(F)(F)F)c1)c1nc(SC(F)(C(F)(F)F)C(F)(F)F)nn1-c1ccc(Cl)cn1 (centres unmarked) [I-070]
[3]
  pest or weed control at 5 µg/cm2: 100%
[1]
  pest or weed control at 0.004 mg: 100%
  pest or weed control at 0.02 mg: 100%

## CC(NC(=O)c1cncc(C(F)(F)F)c1)c1nc(-c2cnccn2)nn1-c1ncccn1 (centres unmarked) [I-050]
[1]
  pest or weed control at 0.004 mg: 100%
  pest or weed control at 0.02 mg: 100%
[2]
  mortality at 100 ppm: 100%

## CC(NC(=O)c1cc(Br)cc(Br)c1)c1nc(NC(=O)OC(C)(C)C)nn1-c1ccc(C(=O)N2CCOCC2)cn1 (racemic) [I-106, tert-butyl N-[5-[1-[(3,5-dibromobenzoyl)amino]ethyl]-1-[5-(morpholine-4-carbonyl)-2-pyridyl]-1,2,4-triazol-3-yl]carbamate]
[3]
  pest or weed control at 5 µg/cm2: 80%

## CC(NC(=O)c1cc(C(F)(F)F)cc(C(F)(F)F)c1)c1nc(NC(=O)OC(C)(C)C)nn1-c1ccc(C(=O)N2CCOCC2)cn1 (centres unmarked) [I-113]
[3]
  pest or weed control at 5 µg/cm2: 90%
[4]
  pest or weed control at 32 µg/disc, 100 g/ha: 100%

## CC(=O)Nc1nc(C(C)NC(=O)c2cc(OC(F)(F)F)cc(C3CC3)c2)n(-c2ccc(C#N)cn2)n1 (centres unmarked) [I-124]
[3]
  pest or weed control at 5 µg/cm2: 100%
[4]
  pest or weed control at 32 µg/disc, 100 g/ha: 100%
[5]
  mortality at 100 g/ha: 100%

## CC(NC(=O)c1cncc(C(F)(F)F)c1)c1nc(-c2ccc(Cl)nc2)nn1-c1ncccn1 (centres unmarked) [I-042]
[1]
  pest or weed control at 0.02 mg: 100%
[2]
  mortality at 100 ppm: 90%

## CC(NC(=O)c1cc(Cl)nc(C(F)(F)F)c1)c1nc(-c2cnccn2)nn1-c1ccc(Cl)cn1 (centres unmarked) [I-037]
[1]
  pest or weed control at 0.004 mg: 100%
  pest or weed control at 0.02 mg: 100%
[2]
  mortality at 100 ppm: 90%

## CC(NC(=O)c1cc(OC(F)(F)F)cc(C2CC2)c1)c1nc(N2CCOCC2)nn1-c1ccc(C#N)cn1 (centres unmarked) [I-161]
[3]
  pest or weed control at 5 µg/cm2: 100%
[4]
  pest or weed control at 32 µg/disc, 100 g/ha: 100%
